Here are results for two molecules from patent US20140127192A1, “METHOD FOR TREATING OSTEOPOROSIS” (AMGEN INC, priority 2011, published 2014).

For assay [1], the system named is postmenopausal women with low BMD at lumbar vertebrae, total hip or femoral neck. As to the kind of experiment: Randomized multicenter study, BMD measured by DXA in postmenopausal women with low BMD. The class given is in vivo, human. The note with it: open label active control arm; for Femoral Neck BMD % Change from Baseline, Mean / Lumbar Vertebrae BMD % Change from Baseline, Mean / Total Hip BMD % Change from Baseline, Mean: 12 months; for mean percent change of lumbar vertebrae BMD from pretreatment baseline: month 6; for mean percent change of distal ⅓ radius BMD from pretreatment baseline: month 12. The protocol: This example describes in vivo studies wherein an anti-sclerostin antibody improved bone mineral density in postmenopausal women.
A multicenter, international, randomized, parallel group study in postmenopausal women with low BMD at lumbar vertebrae, total hip or femoral neck was conducted. 419 subjects were randomized to receive one of five regimens of an anti-sclerostin antibody, placebo, open label alendronate (ALN), or open label teriparatide (TPTD) for 12 months. The placebo group was further randomized to match the schedules corresponding to the five anti-sclerostin antibody regimens. The subject distribution was as follows: 52 subjects to the placebo arm, 51 subjects to ALN arm, 55 subjects to TPTD arm, and 51, 54, 51, 53, and 52 subjects to anti-sclerostin antibody 70 mg QM, 140 mg Q3M, 140 mg QM, 210 mg Q3M, and 210 mg QM arms, respectively. 383 subjects completed the 12 months of study. Among all subjects enrolled in the study, the mean age was 66.8 years old, 86.4% of subjects were Caucasian, and the mean pretreatment baseline lumbar vertebrae and total hip BMD T-scores were −2.29 and −1.53, respectively. The primary analysis occurred after all subjects had the opportunity to complete the month 12 study visit. BMD was measured by DXA. Overall, the proportions of patients reporting adverse events were balanced between placebo arm and anti-sclerostin antibody arms.

For assay [2], the system named is bone resorption marker (CTX) and bone formation markers (P1NP, BSAP, OC). The assay can be described thus: Bone turnover markers in the same study (serum CTX, P1NP, BSAP, OC). The class given is in vivo, human. The note with it: open label active control. The source says: A subject's physiological response to an anti-sclerostin antibody can be gauged by monitoring bone marker levels. Bone markers are products created during the bone remodeling process and are released by bone, osteoblasts, and/or osteoclasts. Fluctuations in bone resorption and/or bone formation “marker” levels imply changes in bone remodeling/modeling. The International Osteoporosis Foundation (IOF) recommends using bone markers to monitor bone density therapies (see, e.g., Delmas et al., Osteoporos Int., Suppl. 6:S2-17 (2000), incorporated herein by reference). Markers indicative of bone resorption (or osteoclast activity) include, for example, C-telopeptide (e.g., C-terminal telopeptide of type 1 collagen (CTX) or serum cross-linked C-telopeptide), N-telopeptide (N-terminal telopeptide of type 1 collagen (NTX)), deoxypyridinoline (DPD), pyridinoline, urinary hydroxyproline, galactosyl hydroxylysine, and tartrate-resistant acid phosphatase (e.g., serum tartrate-resistant acid phosphatase isoform 5b). Bone formation/mineralization markers include, but are not limited to, bone-specific alkaline phosphatase (BSAP), peptides released from N- and C-terminal extension of type I procollagen (P1NP, PICP), and osteocalcin (OC). Several kits are commercially-available to detect and quantify markers in clinical samples, such as urine and blood.
A multicenter, international, randomized, parallel group study in postmenopausal women with low BMD at lumbar vertebrae, total hip or femoral neck was conducted. 419 subjects were randomized to receive one of five regimens of an anti-sclerostin antibody, placebo, open label alendronate (ALN), or open label teriparatide (TPTD) for 12 months. The placebo group was further randomized to match the schedules corresponding to the five anti-sclerostin antibody regimens. […] BMD was measured by DXA. […]

Molecules are shown by their SMILES.

For `CC[C@H](C)[C@H](NC(=O)[C@H](CCC(=O)O)NC(=O)[C@H](CO)NC(=O)[C@@H](NC(=O)[C@@H](N)CO)C(C)C)C(=O)N[C@@H](CCC(N)=O)C(=O)N[C@@H](CC(C)C)C(=O)N[C@@H](CCSC)C(=O)N[C@@H](Cc1cnc[nH]1)C(=O)N[C@@H](CC(N)=O)C(=O)N[C@@H](CC(C)C)C(=O)NCC(=O)N[C@@H](CCCCN)C(=O)N[C@@H](Cc1cnc[nH]1)C(=O)N[C@@H](CC(C)C)C(=O)N[C@@H](CC(N)=O)C(=O)N[C@@H](CO)C(=O)N[C@@H](CCSC)C(=O)N[C@@H](CCC(=O)O)C(=O)N[C@@H](CCCN=C(N)N)C(=O)N[C@H](C(=O)N[C@@H](CCC(=O)O)C(=O)N[C@@H](Cc1c[nH]c2ccccc12)C(=O)N[C@@H](CC(C)C)C(=O)N[C@@H](CCCN=C(N)N)C(=O)N[C@@H](CCCCN)C(=O)N[C@@H](CCCCN)C(=O)N[C@@H](CC(C)C)C(=O)N[C@@H](CCC(N)=O)C(=O)N[C@@H](CC(=O)O)C(=O)N[C@H](C(=O)N[C@@H](Cc1cnc[nH]1)C(=O)N[C@@H](CC(N)=O)C(=O)N[C@@H](Cc1ccccc1)C(=O)O)C(C)C)C(C)C` [TPTD, teriparatide], in assay [1], the “Femoral Neck BMD % Change from Baseline, Mean” value came to 1.1%; the “Lumbar Vertebrae BMD % Change from Baseline, Mean” value is reported as 7.1%; the “Total Hip BMD % Change from Baseline, Mean” value came to 1.3%; the “mean percent change of lumbar vertebrae BMD from pretreatment baseline” value was 4.8%. The “mean percent change of distal ⅓ radius BMD from pretreatment baseline” value in assay [1] is reported as −1.7%. Also, in assay [2], the “adaptive response (bone formation markers falling to approximately baseline within two to six months)” value is listed as “not observed” and the “bone formation markers over the course of treatment” value is on record as “remained elevated”.

As to `NCCCC(O)(P(=O)(O)O)P(=O)(O)O` [ALN, alendronate], in assay [1], the “Femoral Neck BMD % Change from Baseline, Mean” value stood at 1.2%; the “Lumbar Vertebrae BMD % Change from Baseline, Mean” value is 4.1%; the “Total Hip BMD % Change from Baseline, Mean” value was 1.9%; the “mean percent change of lumbar vertebrae BMD from pretreatment baseline” value stood at 2.6%. In addition, the “mean percent change of distal ⅓ radius BMD from pretreatment baseline” value in assay [1] is −0.3%. Further, the “adaptive response (bone formation markers falling to approximately baseline within two to six months)” value in assay [2] is “not observed”.
